From ChEMBL document CHEMBL1201861, “Genomics of Drug Sensitity in Cancer screening data, Wellcome Trust Sanger Institute”

Key:
Assay in all cases: cells
Conditions in all cases: Homo sapiens
A704 = format: functional, cell-based;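 note: growth inhibition of human A704 cells, read out with a cell viability assay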
Description: SANGER: Inhibition of human A704 cell growth in a cell viability assay.

C8166 = format: functional, cell-based;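 note: growth inhibition of human C8166 cells measured by a cell viability assay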
Description: SANGER: Inhibition of human C8166 cell growth in a cell viability assay.

RPMI-8226 = format: functional, cell-based
Description: SANGER: Inhibition of human RPMI-8226 cell growth in a cell viability assay.

SBC-1 = format: functional, cell-based;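 note: cell viability assay measuring growth inhibition of the SBC-1 cell line, IC50 being the concentration that halves growth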
Description: SANGER: Inhibition of human SBC-1 cell growth in a cell viability assay.

HCC2218 = format: functional, cell-based;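 note: cell viability assay read-out, with IC50 given as the concentration that inhibits growth of the cell line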
Description: SANGER: Inhibition of human HCC2218 cell growth in a cell viability assay.

Calu-6 = format: functional, cell-based;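 note: growth of human Calu-6 cells, read out by a cell viability assay, IC50 marking inhibition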
Description: SANGER: Inhibition of human Calu-6 cell growth in a cell viability assay.

KMOE-2 = format: functional, cell-based;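 note: growth inhibition of human KMOE-2 cells, read out with a cell viability assay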
Description: SANGER: Inhibition of human KMOE-2 cell growth in a cell viability assay.

LOX IMVI = format: functional, cell-based
Description: SANGER: Inhibition of human LOXIMVI cell growth in a cell viability assay.

NCI-H1770 = format: functional, cell-based;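 note: growth inhibition of NCI-H1770 cells determined with a viability readout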
Description: SANGER: Inhibition of human NCI-H1770 cell growth in a cell viability assay.

GI-1 = format: functional, cell-based
Description: SANGER: Inhibition of human GI-1 cell growth in a cell viability assay.

NCI-H1648 = format: functional, cell-based;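 note: cell viability assay measuring inhibition of NCI-H1648 cell growth, from the Sanger screening data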
Description: SANGER: Inhibition of human NCI-H1648 cell growth in a cell viability assay.

KU812 cell line = format: functional, cell-based;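 note: growth inhibition of KU812 cells, read out with a cell viability assay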
Description: SANGER: Inhibition of human KU812 cell growth in a cell viability assay.

NCI-H1355 = format: functional, cell-based;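 note: growth inhibition of human NCI-H1355 cells, read out by a cell viability assay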
Description: SANGER: Inhibition of human NCI-H1355 cell growth in a cell viability assay.

ES8 = format: functional, cell-based;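 note: growth inhibition of human ES8 cells, read out with a cell viability assay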
Description: SANGER: Inhibition of human ES8 cell growth in a cell viability assay.

ETK-1 = format: functional, cell-based;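 note: growth inhibition of human ETK-1 cells, read out with a cell viability assay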
Description: SANGER: Inhibition of human ETK-1 cell growth in a cell viability assay.

LB1047-RCC = format: functional, cell-based;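 note: inhibition of cell growth, determined with a cell viability assay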
Description: SANGER: Inhibition of human LB1047-RCC cell growth in a cell viability assay.

HL-60 = format: functional, cell-based;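 note: growth inhibition of human HL-60 cells, read out with a cell viability assay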
Description: SANGER: Inhibition of human HL-60 cell growth in a cell viability assay.

MHH-PREB-1 = format: functional, cell-based;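 note: cell viability assay measuring inhibition of proliferation of human MHH-PREB-1 cells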
Description: SANGER: Inhibition of human MHH-PREB-1 cell growth in a cell viability assay.

KG-1 = format: functional, cell-based;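 note: growth inhibition of KG-1 cells, read out by a cell viability assay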
Description: SANGER: Inhibition of human KG-1 cell growth in a cell viability assay.

GOTO = format: functional, cell-based;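 note: growth inhibition of GOTO cells, read out by a cell viability assay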
Description: SANGER: Inhibition of human GOTO cell growth in a cell viability assay.

KS-1 = format: functional, cell-based;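 note: growth inhibition of KS-1 cells, read out with a cell viability assay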
Description: SANGER: Inhibition of human KS-1 cell growth in a cell viability assay.

SNU-C2B = format: functional, cell-based;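 note: cell viability readout used to measure compound-driven suppression of SNU-C2B cell proliferation, IC50 marking half-maximal growth inhibition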
Description: SANGER: Inhibition of human SNU-C2B cell growth in a cell viability assay.

RXF 393 = format: functional, cell-based;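 note: growth inhibition of human RXF 393 cells, read out with a cell viability assay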
Description: SANGER: Inhibition of human RXF393 cell growth in a cell viability assay.

OCUB-M = format: functional, cell-based;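 note: growth inhibition of the cancer cell line, read out through a cell viability assay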
Description: SANGER: Inhibition of human OCUB-M cell growth in a cell viability assay.

NOMO-1 = format: functional, cell-based;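 note: growth inhibition of human NOMO-1 cells measured by a cell viability assay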
Description: SANGER: Inhibition of human NOMO-1 cell growth in a cell viability assay.

697 = format: functional, cell-based
Description: SANGER: Inhibition of human 697 cell growth in a cell viability assay.

J-RT3-T3-5 = format: functional, cell-based;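 note: cell viability assay measuring growth inhibition of human J-RT3-T3-5 cells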
Description: SANGER: Inhibition of human J-RT3-T3-5 cell growth in a cell viability assay.

SCH = format: functional, cell-based;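 note: growth inhibition of human SCH cells, read out in a cell viability assay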
Description: SANGER: Inhibition of human SCH cell growth in a cell viability assay.

NCI-H69 = format: functional, cell-based;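 note: growth inhibition of the cell line, read out with a cell viability assay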
Description: SANGER: Inhibition of human NCI-H69 cell growth in a cell viability assay.

MN-60 = format: functional, cell-based;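 note: growth inhibition of the MN-60 cell line, determined with a cell viability assay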
Description: SANGER: Inhibition of human MN-60 cell growth in a cell viability assay.

no-11 = format: functional, cell-based;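 note: growth inhibition of human NO-11 cells, read out with a cell viability assay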
Description: SANGER: Inhibition of human no-11 cell growth in a cell viability assay.

GR-ST = format: functional, cell-based
Description: SANGER: Inhibition of human GR-ST cell growth in a cell viability assay.

KNS-42 = format: functional, cell-based;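 note: growth inhibition of KNS-42 cells, read out with a cell viability assay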
Description: SANGER: Inhibition of human KNS-42 cell growth in a cell viability assay.

OMC-1 = format: functional, cell-based;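 note: growth inhibition of the OMC-1 cell line, measured by a cell viability assay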
Description: SANGER: Inhibition of human OMC-1 cell growth in a cell viability assay.

KLE = format: functional, cell-based;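 note: growth inhibition of human KLE cells, read out with a cell viability assay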
Description: SANGER: Inhibition of human KLE cell growth in a cell viability assay.

NCI-H1838 = format: functional, cell-based;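 note: growth inhibition of NCI-H1838 cells, determined with a cell viability readout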
Description: SANGER: Inhibition of human NCI-H1838 cell growth in a cell viability assay.

SK-PN-DW = format: functional, cell-based;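 note: growth inhibition measured with a viability assay on these cells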
Description: SANGER: Inhibition of human SK-PN-DW cell growth in a cell viability assay.

LB831-BLC = format: functional, cell-based;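 note: growth inhibition of LB831-BLC cells, read out with a cell viability assay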
Description: SANGER: Inhibition of human LB831-BLC cell growth in a cell viability assay.

DMS-79 = format: functional, cell-based;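 note: growth inhibition measured with a cell viability assay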
Description: SANGER: Inhibition of human DMS-79 cell growth in a cell viability assay.

MC116 = format: functional, cell-based;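 note: growth inhibition of MC116 cells, read out with a cell viability assay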
Description: SANGER: Inhibition of human MC116 cell growth in a cell viability assay.

Ramos-2G6-4C10 = format: functional, cell-based;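 note: growth inhibition of the cell line, measured by a cell viability read-out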
Description: SANGER: Inhibition of human Ramos-2G6-4C10 cell growth in a cell viability assay.

LS-513 = format: functional, cell-based
Description: SANGER: Inhibition of human LS-513 cell growth in a cell viability assay.

SH-4 = format: functional, cell-based;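 note: growth inhibition of SH-4 cells, read out with a cell viability assay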
Description: SANGER: Inhibition of human SH-4 cell growth in a cell viability assay.

MOLT-16 = format: functional, cell-based;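 note: growth inhibition of human MOLT-16 cells, read out with a cell viability assay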
Description: SANGER: Inhibition of human MOLT-16 cell growth in a cell viability assay.

ES5 = format: functional, cell-based;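 note: growth inhibition of human ES5 cells, read out by a cell viability assay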
Description: SANGER: Inhibition of human ES5 cell growth in a cell viability assay.

NTERA-2-cl-D1 = format: functional, cell-based;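 note: inhibition of cell growth, measured with a cell viability assay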
Description: SANGER: Inhibition of human NTERA-S-cl-D1 cell growth in a cell viability assay.

ES1 = format: functional, cell-based;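 note: growth inhibition of ES1 cells, read out with a cell viability assay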
Description: SANGER: Inhibition of human ES1 cell growth in a cell viability assay.

JVM-2 = format: functional, cell-based;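 note: growth inhibition of JVM-2 cells determined by a cell viability assay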
Description: SANGER: Inhibition of human JVM-2 cell growth in a cell viability assay.

SNU1 = format: functional, cell-based;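 note: growth inhibition of human NCI-SNU-1 cells, measured with a cell viability assay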
Description: SANGER: Inhibition of human NCI-SNU-1 cell growth in a cell viability assay.

GB-1 = format: functional, cell-based;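 note: growth of GB-1 cells judged by a viability assay, IC50 marks the concentration inhibiting growth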
Description: SANGER: Inhibition of human GB-1 cell growth in a cell viability assay.

TK-10 = format: functional, cell-based;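 note: growth inhibition of TK-10 cells, read out in a cell viability assay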
Description: SANGER: Inhibition of human TK10 cell growth in a cell viability assay.

LU-134-A = format: functional, cell-based
Description: SANGER: Inhibition of human LU-134-A cell growth in a cell viability assay.

HDLM-2 = format: functional, cell-based;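 note: cell viability assay measuring suppression of HDLM-2 proliferation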
Description: SANGER: Inhibition of human HDLM-2 cell growth in a cell viability assay.

KY821 = format: functional, cell-based;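 note: growth inhibition of human KY821 cells, read out by a cell viability assay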
Description: SANGER: Inhibition of human KY821 cell growth in a cell viability assay.

MZ1-PC = format: functional, cell-based;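 note: cell viability assay measuring growth inhibition of human MZ1-PC cells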
Description: SANGER: Inhibition of human MZ1-PC cell growth in a cell viability assay.

NCI-H1155 = format: functional, cell-based
Description: SANGER: Inhibition of human NCI-H1155 cell growth in a cell viability assay.

SHP77 = format: functional, cell-based, SHP-77
Description: SANGER: Inhibition of human SHP-77 cell growth in a cell viability assay.

SW 954 = format: functional, cell-based
Description: SANGER: Inhibition of human SW954 cell growth in a cell viability assay.

LAN-6 = format: functional, cell-based
Description: SANGER: Inhibition of human LAN-6 cell growth in a cell viability assay.

SK-MEL-2 = format: functional, cell-based
Description: SANGER: Inhibition of human SK-MEL-2 cell growth in a cell viability assay.

IST-SL1 = format: functional, cell-based
Description: SANGER: Inhibition of human IST-SL1 cell growth in a cell viability assay.

EOL1 = format: functional, cell-based
Description: SANGER: Inhibition of human EoL-1-cell cell growth in a cell viability assay.

KARPAS-299 = format: functional, cell-based
Description: SANGER: Inhibition of human KARPAS-299 cell growth in a cell viability assay.

EC-GI-10 = format: functional, cell-based
Description: SANGER: Inhibition of human EC-GI-10 cell growth in a cell viability assay.

JAR = format: functional, cell-based
Description: SANGER: Inhibition of human JAR cell growth in a cell viability assay.

GAK = format: functional, cell-based
Description: SANGER: Inhibition of human GAK cell growth in a cell viability assay.

C[C@]12O[C@H](C[C@]1(O)CO)n1c3ccccc3c3c4c(c5c6ccccc6n2c5c31)CNC4=O [LESTAURTINIB]
IC50 (A704): 967 nM
IC50 (C8166): > 2000 nM
IC50 (RPMI-8226): 386 nM
IC50 (SBC-1): 60.6 nM
IC50 (HCC2218): > 2000 nM
IC50 (Calu-6): > 2000 nM
IC50 (KMOE-2): 617 nM
IC50 (LOX IMVI): 298 nM
IC50 (NCI-H1770): > 2000 nM
IC50 (GI-1): 546 nM
IC50 (NCI-H1648): > 2000 nM
IC50 (KU812 cell line): 1010 nM
IC50 (NCI-H1355): > 2000 nM
IC50 (ES8): 132 nM
IC50 (ETK-1): 856 nM
IC50 (LB1047-RCC): 76.9 nM
IC50 (HL-60): 149 nM
IC50 (MHH-PREB-1): 27.2 nM
IC50 (KG-1): 409 nM
IC50 (GOTO): 940 nM
IC50 (KS-1): 375 nM
IC50 (SNU-C2B): 1120 nM
IC50 (RXF 393): 917 nM
IC50 (OCUB-M): > 2000 nM
IC50 (NOMO-1): 149 nM
IC50 697: 26.5 nM
IC50 (J-RT3-T3-5): 365 nM
IC50 (SCH): > 2000 nM
IC50 (NCI-H69): > 2000 nM
IC50 (MN-60): 372 nM
IC50 (no-11): > 2000 nM
IC50 (GR-ST): 494 nM
IC50 (KNS-42): > 2000 nM
IC50 (OMC-1): 1180 nM
IC50 (KLE): > 2000 nM
IC50 (NCI-H1838): > 2000 nM
IC50 (SK-PN-DW): 394 nM
IC50 (LB831-BLC): > 2000 nM
IC50 (DMS-79): > 2000 nM
IC50 (MC116): 190 nM
IC50 (Ramos-2G6-4C10): 206 nM
IC50 (LS-513): 1250 nM
IC50 (SH-4): 110 nM
IC50 (MOLT-16): 89.8 nM
IC50 (ES5): 16.5 nM
IC50 (NTERA-2-cl-D1): 363 nM
IC50 (ES1): 95.3 nM
IC50 (JVM-2): > 2000 nM
IC50 (SNU1): 183 nM
IC50 (GB-1): 238 nM
IC50 (TK-10): 251 nM
IC50 (LU-134-A): 600 nM
IC50 (HDLM-2): > 2000 nM
IC50 (KY821): 159 nM
IC50 (MZ1-PC): > 2000 nM
IC50 (NCI-H1155): 912 nM
IC50 (SHP77): > 2000 nM
IC50 (SW 954): 291 nM
IC50 (LAN-6): > 2000 nM
IC50 (SK-MEL-2): 26.6 nM
IC50 (IST-SL1): 112 nM
IC50 (EOL1): 8.69 nM
IC50 (KARPAS-299): > 2000 nM
IC50 (EC-GI-10): 535 nM
IC50 (JAR): 9.94 nM

CCNC(=O)c1noc(-c2cc(C(C)C)c(O)cc2O)c1-c1ccc(CN2CCOCC2)cc1 [LUMINESPIB]
IC50 (A704): > 256 nM
IC50 (C8166): 11.3 nM
IC50 (RPMI-8226): 117 nM
IC50 (SBC-1): > 256 nM
IC50 (HCC2218): 100 nM
IC50 (Calu-6): 79.6 nM
IC50 (KMOE-2): 57.5 nM
IC50 (LOX IMVI): 23.2 nM
IC50 (NCI-H1770): 58.8 nM
IC50 (GI-1): 148 nM
IC50 (NCI-H1648): 15 nM
IC50 (KU812 cell line): 36.8 nM
IC50 (NCI-H1355): 24 nM
IC50 (ES8): 35.4 nM
IC50 (ETK-1): 28.1 nM
IC50 (LB1047-RCC): 50.3 nM
IC50 (HL-60): 18.1 nM
IC50 (MHH-PREB-1): 93.1 nM
IC50 (KG-1): > 256 nM
IC50 (GOTO): 172 nM
IC50 (KS-1): 8.59 nM
IC50 (SNU-C2B): 12.7 nM
IC50 (RXF 393): 8.6 nM
IC50 (OCUB-M): 39.6 nM
IC50 (NOMO-1): 71.7 nM
IC50 697: 20.3 nM
IC50 (J-RT3-T3-5): 89.7 nM
IC50 (SCH): > 256 nM
IC50 (NCI-H69): > 256 nM
IC50 (MN-60): 242 nM
IC50 (no-11): 30.5 nM
IC50 (GR-ST): 102 nM
IC50 (KNS-42): > 256 nM
IC50 (OMC-1): 17.5 nM
IC50 (KLE): 162 nM
IC50 (NCI-H1838): > 256 nM
IC50 (SK-PN-DW): 55.9 nM
IC50 (LB831-BLC): 32.2 nM
IC50 (DMS-79): > 256 nM
IC50 (MC116): > 256 nM
IC50 (Ramos-2G6-4C10): 76.5 nM
IC50 (LS-513): 74.6 nM
IC50 (SH-4): 41.4 nM
IC50 (MOLT-16): 17.9 nM
IC50 (ES5): > 256 nM
IC50 (NTERA-2-cl-D1): 13.4 nM
IC50 (ES1): 2.66 nM
IC50 (JVM-2): > 256 nM
IC50 (SNU1): 78.9 nM
IC50 (GB-1): 21.9 nM
IC50 (TK-10): 13.8 nM
IC50 (LU-134-A): 57.1 nM
IC50 (HDLM-2): 41.1 nM
IC50 (KY821): > 256 nM
IC50 (MZ1-PC): 26.4 nM
IC50 (NCI-H1155): > 256 nM
IC50 (SHP77): 145 nM
IC50 (SW 954): 10.7 nM
IC50 (LAN-6): 85 nM
IC50 (SK-MEL-2): 125 nM
IC50 (IST-SL1): > 256 nM
IC50 (EOL1): > 256 nM
IC50 (KARPAS-299): 230 nM
IC50 (EC-GI-10): > 256 nM
IC50 (JAR): > 256 nM
IC50 (GAK): 57.3 nM
